Substitutions are numbered along the chain they refer to. Where two headings read alike, the source gives them in different places.

Test [1] has as its target T1, His-TEV-AtPP01 ΔcTP (SEQ ID NO: 370) (Arabidopsis thaliana, UniProt P55826).
T1 construct: with cTPs removed; made in house; host or cells: E. coli BL21 (DE3), His GraviTrap, partially purified
T1 sequence (P55826 with tags, fused parts or gaps): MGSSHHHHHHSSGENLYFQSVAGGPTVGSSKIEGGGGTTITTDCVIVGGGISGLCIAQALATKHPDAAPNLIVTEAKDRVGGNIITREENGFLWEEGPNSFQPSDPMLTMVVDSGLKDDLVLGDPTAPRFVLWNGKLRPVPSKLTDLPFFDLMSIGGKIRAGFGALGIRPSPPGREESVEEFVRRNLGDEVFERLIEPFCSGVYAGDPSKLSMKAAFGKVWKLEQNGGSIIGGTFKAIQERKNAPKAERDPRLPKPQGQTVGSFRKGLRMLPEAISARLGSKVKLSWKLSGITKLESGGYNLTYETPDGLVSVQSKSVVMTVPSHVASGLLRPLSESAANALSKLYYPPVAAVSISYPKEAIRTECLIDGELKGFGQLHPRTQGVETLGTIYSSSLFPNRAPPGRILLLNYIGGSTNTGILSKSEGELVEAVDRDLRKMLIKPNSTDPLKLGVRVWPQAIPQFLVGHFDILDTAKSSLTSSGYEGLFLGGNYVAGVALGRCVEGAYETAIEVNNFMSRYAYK
Description: PPO fluorescence IC50 assay, partially purified enzyme. The test is classed as biochemical. The text has this: (§1) A pET24 plasmid containing a DNA sequence encoding variants of AtPPO1 derived from Arabidopsis thaliana with cTPs removed and both a 6×His tag and TEV protease cleavage tag added at the N-terminus, codon-optimised for expression in E. coli, and under control of a T7 promoter, was synthesised by Twist Bioscience. The following variants were synthesised: WT AtPPO1 (SEQ ID NO: 370), AtPPO1 L479M (SEQ ID NO: 371), AtPPO1 L479N (SEQ ID NO: 372), AtPPO1 S305L Y426V (SEQ ID NO: 374) and AtPPO1 S305L Y426V L479M (SEQ ID NO: 373). This plasmid was expressed in E. coli BL21 (DE3) with 50 μg/mL kanamycin selection. 10 mL of overnight cultures grown at 37° C. were used to inoculate 1 L AIM (AIM-Terrific Broth Base including Trace elements, Formedium) in 2 L shake flasks. Cultures were grown at 37° C., 200 rpm for 3 hours and then overnight at 26° C. Cells were harvested centrifugation. 5-15 g of cell pellet was lysed in and resuspended in ratio of 1:1.5 in lysis buffer (20 mM Tris pH8, 500 mM sodium chloride, 10% glycerol, 1× complete Protease EDTA-free Inhibitor Tablet (Roche), 10 mM imidazole). The resuspension was sonicated at 75% using 10 cycles of 30 seconds, 40 seconds off. After sonication Triton X-100 was added to the lysates at a final concentration of 0.5%. The lysates were centrifuged at 20,000 rpm for 25 min at 4° C. Cleared lysates were loaded on His GraviTrap (Cytiva) columns, washed with 20 mL of lysis buffer and eluted in elution buffer (20 mM Tris pH8, 500 mM sodium chloride, 10% glycerol, 200 mM imidazole, 0.03% (v/v) Triton X-100). The eluate was desalted on a PD10 column and 2.5-3.2 mL was collected. Protein concentration was measured and calculated using the absorbance at 280 nm. Extracts were diluted 1 in 4 and 10 uL was analysed by SDS PAGE.
(§2) Partially purified Protoporphyrinogen Oxidase enzymes were assayed for activity using fluorescence adapted from the method of Shepherd & Dailey (Anal Biochem. 2005 344(1) 115-121). The assay was performed in black 384 well plates with a clear bottom and the total volume of the reaction mixture was 91 ul. The final assay mixture contained 100 mM K2HPO4 pH7.2, 1 mM Na2EDTA, 5 mM DTT, 20% glycerol (v/v), 0.05% Tween 20 (v/v), 1.1% DMSO (v/v), 1 uM protoporphyrinogen IX and 1.5 nM enzyme. Compounds were dissolved in DMSO at 1 mM and a 4-fold serial dilution carried out to give 8 rates. 1 ul was added to the assay mixture. This gave final compound concentrations of 11, 2.7, 0.69, 0.17, 0.04, 0.01, 0.002, 0.0007 uM. Enzyme and inhibitor were preincubated for 5 minutes prior to starting the reaction with the addition of the substrate. […] IC50s were calculated using GraphPad Prism 7.05 nonlinear regression (Table 6). Each compound was tested in duplicate.

For test [2], the target named is T2, His-TEV-AtPPO1 ΔcTP V002 (SEQ ID NO: 373) (Arabidopsis thaliana, UniProt P55826, L479M/S305L/Y426V).
T2 construct: with cTPs removed; made in house; host or cells: E. coli BL21 (DE3), His GraviTrap, partially purified
T2 sequence (P55826 with tags, fused parts or gaps S305L/Y426V/L479M): T1 sequence (P55826 with tags, fused parts or gaps) with S290L, Y411V, L464M
The test is described as above. The test is classed as biochemical.
Source text: as §1, §2

Where [3] appears, read: role: inhibitor, 1 uM protoporphyrinogen IX, <1.0 is below detection limit of assay.

On to `C#CCN1C(=O)C(F)(F)Oc2cc(F)c(-n3c(=O)n(C)c(=S)n(C)c3=O)cc21` [Herbicide B, trifludimoxazin], for which the results for the IC50 in test [1] and in test [2] were 0.7 nM and 2.1 nM, respectively.
For `CS(=O)(=O)NC(=O)c1cc(Oc2ccc(C(F)(F)F)cc2Cl)ccc1[N+](=O)[O-]` [Fomesafen, fomesafen], in that order: 1.8 nM and 0.5 nM.
In the same order, the values of `CCOC(=O)C1(C)CC(c2cc(-n3c(=O)cc(C(F)(F)F)n(C)c3=O)c(F)cc2Cl)=NO1` (stereo not shown) [Herbicide C, 3-(2-chloro-4-fluoro-5-(3-methyl-2,6-dioxo-4-trifluoromethyl-3,6-dihydropyrimidin-1(2H)-yl)phenyl)-5-methyl-4,5-dihydroisoxazole-5-carboxylic acid ethyl ester] are 0.7 nM and 121 nM.
As for `COC(=O)C(C)ON=Cc1cc(-n2c(=O)cc(C(F)(F)F)n(C)c2=O)c(F)cc1Cl` (stereo not shown) [Flufenoximacil, flufenoximacil], the figures for the IC50 in test [1] (setting [3]) and in test [2] (setting [3]) were 0.6 nM and 863 nM, respectively.
For the compound `CCOC(=O)COc1ncccc1Oc1cc(-n2c(=O)cc(C(F)(F)F)n(C)c2=O)c(F)cc1Cl` [Herbicide A, epyrifenacil], the IC50 in test [1] was 0.7 nM; in test [2], 447 nM.
Take `C=CCOC(=O)C(C)(C)OC(=O)c1cc(-n2c(=O)cc(C(F)(F)F)n(C)c2=O)ccc1Cl` [Butafenacil, butafenacil]: the IC50 in test [1] was 0.6 nM; in test [2] it was 12.5 nM.
Consider `CCOC(=O)[C@]1(C)CC(c2cc(-n3c(=O)n(C)c(=S)n(C)c3=O)c(F)cc2Cl)=NO1` [Herbicide D, ethyl (5S)-3-[2-chloro-5-(3,5-dimethyl-2,6-dioxo-4-thioxo-1,3,5-triazinan-1-yl)-4-fluoro-phenyl]-5-methyl-4H-isoxazole-5-carboxylate], for which 335 nM corresponded to half-maximal inhibition in test [2] (IC50).
With `C#CCOc1cc(-n2nc3n(c2=O)CCCC3)c(Cl)cc1Cl` [Azafenadin], the IC50 in test [1] was 0.8 nM; in test [2], 149 nM.
Take `C#CCN(C)c1c(C#N)cnn1-c1nn2c(c1Cl)CCCC2` [Pyraclonil]: the results for the IC50 in test [1] and in test [2] were 2.5 nM and 5560 nM, respectively.
As for `CC(C)N(C)S(=O)(=O)NC(=O)c1cc(-n2c(=O)cc(C(F)(F)F)n(C)c2=O)c(F)cc1Cl` [Herbicide E, saflufenacil], the half-maximal inhibitory concentration (IC50) in test [1] was found to be 2.1 nM; in test [2], 998 nM.
In the same order, the values of `CCOC(=O)COc1cc(-c2nn(C)c(OC(F)F)c2Cl)c(F)cc1Cl` [Pyraflufen-ethyl, pyraflufen-ethyl] are 0.6 nM and 24.2 nM.
Turning to `CC(C)Oc1cc(-n2nc(C(C)(C)C)oc2=O)c(Cl)cc1Cl` [Oxadiazaon], the IC50 in test [1] was found to be 19 nM; in test [2] it was 5620 nM.
For `C#CCN1C(=O)COc2cc(F)c(N3C(=O)C4=C(CCCC4)C3=O)cc21` [Flumioxazin, flumioxazin], in that order: 0.8 nM and 187 nM.

One may read the IC50 as the concentration that gives 50% inhibition.

(Values after US20260297542A1, “HERBICIDE RESISTANT PLANTS” (SYNGENTA CROP PROTECTION AG, priority 2023, published 2026).)
